{"source": "patent US20160175214A1", "about": "“ANHYDROUS COSMETIC COMPOSITION FOR TOPICAL APPLICATION” (The Procter & Gamble Company, priority 2014, published 2016)", "assay": "Solubility in hydrophobic anhydrous, glycol free, antiperspirant free stick formulations", "assay_type": "physicochemical", "description": "Additional considerations regarding exemplary Vitamin B5 derivatives may apply. For example, in order to deliver Vitamin B5 (or a derivative thereof) from an anhydrous, hydrophobic, glycol free and antiperspirant free cosmetic stick, a corresponding matrix soluble form or derivative of Vitamin B5 must be used to achieve the desired benefits of hair softening, shave bump reduction and wound healing from shave cut damage. For example, if an incompatible or insoluble form of Vitamin B5 is used, such as panthenol, this will not form a homogenous one phase solution when the ingredients are blended and heated together from the melt.\nAs such, the Vitamin B5 derivative utilized should be soluble in the anhydrous, hydrophobic, glycol free and antiperspirant free matrix.", "data": [{"smiles": "CCOCC(C)(C)C(O)C(=O)NCCCO", "note": "(stereo not shown) [Panthenyl Ethyl Ether]", "values": [{"measurement": "Solublility in hydrophobic Anhydrous, glycol free, antiperspirant free Stick formulations", "value": "Soluble"}]}]}
